For 26 compounds, IC50 results are on record in patent publication US8022206B2 (OSI Pharmaceuticals, LLC, priority 2008, dated 2011).

One experiment addresses RON (human) (Homo sapiens, UniProt Q04912). In words: RON (human) AlphaScreen kinase assay, Km of ATP. Format: biochemical. The note with it: AlphaScreen, Km of ATP; read-out: RON biochemical IC50. In outline:
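Detection used PT66 AlphaScreen beads added in Tris pH 7.5/NaCl/EDTA/BSA buffer, read after 1 h incubation. Vehicle-only DMSO wells served as controls.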
In general terms: Alpha assays give light when donor and acceptor beads are brought close together.

For another experiment, the target named is MET (human) (Homo sapiens, UniProt P08581). Description: MET (human) AlphaScreen kinase assay, Km of ATP. The settings on record: AlphaScreen, Km of ATP; read-out: Met biochemical IC50. Type of experiment: biochemical. In a few lines:
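Human MET at lot-optimised concentration in 50 mM Tris pH 7.4 buffer with 1 mM DTT, compound at 1% DMSO final; enzyme starts the reaction, 60 min at RT.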

What is called IC50 is the concentration that inhibits the measured activity by half.

Sequence of RON (human) (Q04912 25-1400): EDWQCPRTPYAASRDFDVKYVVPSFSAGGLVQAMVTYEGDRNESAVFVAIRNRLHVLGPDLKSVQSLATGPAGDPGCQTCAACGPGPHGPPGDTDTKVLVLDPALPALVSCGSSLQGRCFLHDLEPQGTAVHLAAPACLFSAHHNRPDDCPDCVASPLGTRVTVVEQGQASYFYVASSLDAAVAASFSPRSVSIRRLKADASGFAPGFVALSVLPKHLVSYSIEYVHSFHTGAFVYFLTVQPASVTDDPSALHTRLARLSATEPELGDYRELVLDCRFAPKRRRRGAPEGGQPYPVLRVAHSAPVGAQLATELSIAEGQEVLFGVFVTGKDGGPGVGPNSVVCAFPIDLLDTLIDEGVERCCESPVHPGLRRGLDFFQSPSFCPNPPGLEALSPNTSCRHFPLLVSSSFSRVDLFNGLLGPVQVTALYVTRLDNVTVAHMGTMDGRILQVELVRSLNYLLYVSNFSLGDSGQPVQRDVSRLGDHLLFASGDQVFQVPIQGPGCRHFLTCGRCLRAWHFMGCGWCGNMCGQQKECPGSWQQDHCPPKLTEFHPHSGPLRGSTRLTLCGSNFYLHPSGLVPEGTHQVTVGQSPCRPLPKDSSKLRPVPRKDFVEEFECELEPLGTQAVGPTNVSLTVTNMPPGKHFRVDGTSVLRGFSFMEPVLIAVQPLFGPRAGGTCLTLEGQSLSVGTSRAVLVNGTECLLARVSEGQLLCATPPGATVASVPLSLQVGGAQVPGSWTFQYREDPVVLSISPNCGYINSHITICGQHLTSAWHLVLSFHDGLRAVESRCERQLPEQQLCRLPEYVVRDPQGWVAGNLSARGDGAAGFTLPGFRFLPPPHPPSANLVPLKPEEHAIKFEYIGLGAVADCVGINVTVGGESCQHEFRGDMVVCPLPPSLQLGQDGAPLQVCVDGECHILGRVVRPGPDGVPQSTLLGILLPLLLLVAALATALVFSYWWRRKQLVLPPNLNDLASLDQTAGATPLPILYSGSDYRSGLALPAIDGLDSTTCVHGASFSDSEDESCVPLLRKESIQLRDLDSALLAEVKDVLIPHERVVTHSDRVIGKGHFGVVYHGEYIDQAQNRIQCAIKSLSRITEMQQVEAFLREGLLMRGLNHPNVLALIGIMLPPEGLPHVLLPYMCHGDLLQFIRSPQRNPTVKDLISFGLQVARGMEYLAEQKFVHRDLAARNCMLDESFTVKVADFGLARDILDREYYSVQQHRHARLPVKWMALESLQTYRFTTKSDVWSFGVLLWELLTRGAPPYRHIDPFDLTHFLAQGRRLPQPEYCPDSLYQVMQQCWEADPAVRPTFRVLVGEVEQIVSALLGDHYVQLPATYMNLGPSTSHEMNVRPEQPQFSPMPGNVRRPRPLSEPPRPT
Sequence of MET (human) (P08581 25-1390): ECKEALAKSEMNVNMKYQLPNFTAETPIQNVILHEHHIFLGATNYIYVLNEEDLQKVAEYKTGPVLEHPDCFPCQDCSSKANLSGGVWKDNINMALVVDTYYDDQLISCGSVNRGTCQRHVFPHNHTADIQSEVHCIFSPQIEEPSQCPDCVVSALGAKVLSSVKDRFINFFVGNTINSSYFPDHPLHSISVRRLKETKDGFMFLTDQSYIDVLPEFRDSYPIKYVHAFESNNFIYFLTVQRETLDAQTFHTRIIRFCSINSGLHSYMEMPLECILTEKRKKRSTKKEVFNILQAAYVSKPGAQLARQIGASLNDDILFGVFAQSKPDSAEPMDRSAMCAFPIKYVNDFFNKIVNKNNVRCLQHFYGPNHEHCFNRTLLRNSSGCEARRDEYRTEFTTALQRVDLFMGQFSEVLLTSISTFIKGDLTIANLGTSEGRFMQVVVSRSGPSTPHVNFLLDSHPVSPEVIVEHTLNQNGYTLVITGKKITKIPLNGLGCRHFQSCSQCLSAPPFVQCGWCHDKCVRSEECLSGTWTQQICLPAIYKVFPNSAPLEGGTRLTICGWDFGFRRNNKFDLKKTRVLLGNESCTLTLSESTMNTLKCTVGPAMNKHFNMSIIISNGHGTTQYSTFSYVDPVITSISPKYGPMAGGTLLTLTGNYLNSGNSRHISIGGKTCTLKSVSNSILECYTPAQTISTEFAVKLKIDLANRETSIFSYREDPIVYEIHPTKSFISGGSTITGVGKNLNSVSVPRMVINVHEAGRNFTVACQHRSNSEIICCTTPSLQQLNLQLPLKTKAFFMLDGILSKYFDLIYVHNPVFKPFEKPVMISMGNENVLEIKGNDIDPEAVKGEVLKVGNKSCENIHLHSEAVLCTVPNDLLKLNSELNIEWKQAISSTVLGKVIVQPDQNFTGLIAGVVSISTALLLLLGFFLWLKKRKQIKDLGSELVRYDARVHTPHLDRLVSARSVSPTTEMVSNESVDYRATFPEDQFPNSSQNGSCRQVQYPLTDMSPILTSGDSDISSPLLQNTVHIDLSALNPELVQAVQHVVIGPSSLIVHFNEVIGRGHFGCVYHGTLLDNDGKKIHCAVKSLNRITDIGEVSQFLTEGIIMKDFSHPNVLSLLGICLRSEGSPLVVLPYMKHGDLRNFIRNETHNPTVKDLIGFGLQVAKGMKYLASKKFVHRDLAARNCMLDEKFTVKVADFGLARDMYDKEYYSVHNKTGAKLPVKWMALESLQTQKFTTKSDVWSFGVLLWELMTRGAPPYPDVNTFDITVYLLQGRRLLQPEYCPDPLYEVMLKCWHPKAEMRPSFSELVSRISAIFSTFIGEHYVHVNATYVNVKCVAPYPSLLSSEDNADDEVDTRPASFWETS

On to `C[C@H](N)C(=O)N1CC=C(c2coc3c(O[C@H](C)c4c(Cl)ccc(F)c4Cl)c(N)ncc23)CC1` [Example 251, (2S)-2-Amino-1-[4-{6-amino-7-[(1R)-1-(2,6-dichloro-3-fluoro-phenyl)ethoxy]furo[3,2-c]pyridin-3-yl}-3,6-dihydropyridin-1(2H)-yl]propan-1-one], for which the IC50 at RON (human) and on MET (human) was < 500 nM each time.
For the compound `C[C@@H](Oc1c(N)ncc2c(-c3ccc(CN4CCN(C)CC4)s3)coc12)c1c(Cl)ccc(F)c1Cl` [Example 218, 7-[(R)-1-(2,6-Dichloro-3-fluorophenyl)ethoxy]-3-[5-(4-methylpiperazin-1-ylmethyl)-thiophen-2-yl]furo[3,2-c]pyridin-6-ylamine], the IC50 at RON (human) and at MET (human) was < 500 nM in each case.
As for `CC(Oc1c(N)ncc2c(-c3cnn(C4CCNCC4)c3)coc12)c1cccc(-c2cnn(C)c2)c1` (stereo not shown) [Example 448, 7-{1-[3-(1-Methyl-1H-pyrazol-4-yl)phenyl]ethoxy}-3-(1-piperidin-4-yl-1H-pyrazol-4-yl)furo[3,2-c]pyridin-6-ylamine], the half-maximal inhibitory concentration (IC50) on RON (human) and on MET (human) was 500 to 5000 nM throughout.
`CCCOC(=O)N1CC=C(c2coc3c(O[C@H](C)c4c(Cl)ccc(F)c4Cl)c(N)ncc23)CC1` [Example 52, 4-{6-Amino-7-[(R)-1-(2,6-dichloro-3-fluorophenyl)-ethoxy]-furo[3,2-c]pyridin-3-yl}-3,6-dihydro-2H-pyridine-1-carboxylic acid propyl ester]: the IC50 on RON (human) and at MET (human) was 500 to 5000 nM in each case.
In the case of `C[C@@H](Oc1c(N)ncc2c(-c3csc(C(N)=O)c3)coc12)c1c(Cl)ccc(F)c1Cl` [Example 318, 4-{6-Amino-7-[(R)-1-(2,6-dichloro-3-fluorophenyl)ethoxy]furo[3,2-c]pyridin-3-yl}thiophene-2-carboxamide], the IC50 on RON (human) and at MET (human) was 500 to 5000 nM in each case.
On to `COCCNC(=O)c1ccc(-c2coc3c(O[C@H](C)c4c(Cl)ccc(F)c4Cl)c(N)ncc23)cc1` [Example 285, 4-{6-Amino-7-[(R)-1-(2,6-dichloro-3-fluorophenyl)ethoxy]furo[3,2-c]pyridin-3-yl}-N-(2-methoxyethyl)benzamide], for which the IC50 at RON (human) and at MET (human) was 500 to 5000 nM throughout.
For the compound `CC(Oc1c(N)ncc2c(-c3cnn(C4CCNCC4)c3)coc12)c1ccccc1` (stereo not shown) [Example 386, 7-(1-Phenylethoxy)-3-(1-piperidin-4-yl-1H-pyrazol-4-yl)furo[3,2-c]pyridin-6-ylamine], the IC50 on RON (human) and on MET (human) was 500 to 5000 nM in each case.
In the case of `C[C@@H](Oc1c(N)ncc2c(C3=CCN(C(=O)c4ccccc4)CC3)coc12)c1c(Cl)ccc(F)c1Cl` [Example 11, (4-{6-Amino-7-[(R)-1-(2,6-dichloro-3-fluorophenyl)-ethoxy]-furo[3,2-c]pyridin-3-yl}-3,6-dihydro-2H-pyridin-1-yl)-phenylmethanone], the IC50 on RON (human) and at MET (human) was 500 to 5000 nM each time.
Consider `C[C@@H](Oc1c(N)ncc2c(-c3ccc(C(=O)NCCO)cc3)coc12)c1c(Cl)ccc(F)c1Cl` [Example 287, 4-{6-Amino-7-[(R)-1-(2,6-dichloro-3-fluorophenyl)ethoxy]furo[3,2-c]pyridin-3-yl}-N-(2-hydroxyethyl)benzamide], for which the concentration for half-maximal inhibition (IC50) at RON (human) and on MET (human) was 500 to 5000 nM each time.
In the case of `CC(Oc1c(N)ncc2c(C3=CCN(C(N)=O)CC3)coc12)c1c(Cl)ccc(F)c1Cl` (stereo not shown) [Example 455, 4-{6-Amino-7-[1-(2,6-dichloro-3-fluorophenyl)ethoxy]furo[3,2-c]pyridin-3-yl}-3,6-dihydro-2H-pyridine-1-carboxamide], the results for the concentration for half-maximal inhibition (IC50) on RON (human) and at MET (human) were 500 to 5000 nM and < 500 nM, respectively.
Taken in the same sequence, the figures for `C[C@@H](Oc1c(N)ncc2c(-c3ccc(C(=O)N4CCC(O)C4)cc3)coc12)c1c(Cl)ccc(F)c1Cl` (stereo partly shown) [Example 299] were 500 to 5000 nM and 500 to 5000 nM.
Turning to `CC(Cc1ccccc1Br)Oc1c(N)ncc2c(-c3cnn(C4CCNCC4)c3)coc12` (stereo not shown) [Example 436, 7-[2-(2-Bromophenyl)-1-methylethoxy]-3-(1-piperidin-4-yl-1H-pyrazol-4-yl)furo[3,2-c]pyridin-6-ylamine], the IC50 at RON (human) and at MET (human) was < 500 nM throughout.
Regarding `C[C@@H](Oc1c(N)ncc2c(-c3cnn(C4CCNCC4)c3)c(-c3ccccc3)oc12)c1c(Cl)ccc(F)c1Cl` [Example 170, 7-[(R)-1-(2,6-Dichloro-3-fluorophenyl)ethoxy]-2-phenyl-3-(1-piperidin-4-yl-1H-pyrazol-4-yl)-furo[3,2-c]pyridin-6-ylamine], the half-inhibitory concentration (IC50) on RON (human) and at MET (human) was 500 to 5000 nM throughout.
Regarding `C[C@@H](Oc1c(N)ncc2c(C(=O)O)coc12)c1c(Cl)ccc(F)c1Cl` [Example 176, 6-Amino-7-[(R)-1-(2,6-dichloro-3-fluorophenyl)ethoxy]furo[3,2-c]pyridine-3-carboxylic acid], the half-inhibitory concentration (IC50) on RON (human) was in the range of 5000 to 20000 nM; at MET (human), 500 to 5000 nM.
As to `CNC(=O)c1ccc(-c2coc3c(O[C@H](C)c4c(Cl)ccc(F)c4Cl)c(N)ncc23)cc1` [Example 289, 4-{6-Amino-7-[(R)-1-(2,6-dichloro-3-fluorophenyl)ethoxy]furo[3,2-c]pyridin-3-yl}-N-methylbenzamide], the IC50 at RON (human) and at MET (human) was 500 to 5000 nM throughout.
With `C[C@@H]1CN(C(=O)CN2CC=C(c3coc4c(O[C@H](C)c5c(Cl)ccc(F)c5Cl)c(N)ncc34)CC2)C[C@H](C)O1` (relative stereo) [Example 204, 2-(4-{6-Amino-7-[(R)-1-(2,6-dichloro-3-fluorophenyl)ethoxy]-furo[3,2-c]pyridin-3-yl}-3,6-dihydro-2H-pyridin-1-yl)-1-((2R*,6S*)-2,6-dimethylmorpholin-4-yl)ethanone], the results for the half-maximal inhibitory concentration (IC50) on RON (human) and on MET (human) were 500 to 5000 nM and < 500 nM, respectively.
The matching figures for `C[C@@H](Oc1c(N)ncc2c(C3=CCN(C(=O)C4(O)CC4)CC3)coc12)c1c(Cl)ccc(F)c1Cl` [Example 19, (4-{6-Amino-7-[(R)-1-(2,6-dichloro-3-fluorophenyl)-ethoxy]-furo[3,2-c]pyridin-3-yl}-3,6-dihydro-2H-pyridin-1-yl)-(1-hydroxycyclopropyl)-methanone]: 500 to 5000 nM and 500 to 5000 nM.
The matching figures for `C[C@@H](Oc1c(N)ncc2c(C3=CCN(C(=O)CN)CC3)coc12)c1c(Cl)ccc(F)c1Cl` [Example 253, 2-Amino-1-[4-{6-amino-7-[(1R)-1-(2,6-dichloro-3-fluorophenyl)ethoxy]furo[3,2-c]pyridin-3-yl}-3,6-dihydropyridin-1(2H)-yl]ethanone]: < 500 nM and < 500 nM.
Turning to `C[C@@H](Oc1c(N)ncc2c(C3=CCN(CC#N)CC3)coc12)c1c(Cl)ccc(F)c1Cl` [Example 321, (4-{6-Amino-7-[(R)-1-(2,6-dichloro-3-fluorophenyl)ethoxy]furo[3,2-c]pyridin-3-yl}-3,6-dihydro-2H-pyridin-1-yl)acetonitrile], the half-inhibitory concentration (IC50) at RON (human) was 500 to 5000 nM; on MET (human), < 500 nM.
The matching figures for `C[C@@H](Oc1c(N)ncc2c(-c3cccc(S(C)(=O)=O)c3)coc12)c1c(Cl)ccc(F)c1Cl` [Example 67, 7-[(R)-1-(2,6-Dichloro-3-fluor-phenyl)ethoxy]-3-(3-methane-sulfonylphenyl)-furo[3,2-c]pyridin-6-ylamine]: 500 to 5000 nM and < 500 nM.
Taken in the same sequence, the figures for `C[C@@H](Oc1c(N)ncc2c(-c3ccc(C(=O)O)cc3)coc12)c1c(Cl)ccc(F)c1Cl` [Example 65, 4-{6-Amino-7-[(R)-1-(2,6-dichloro-3-fluorophenyl)ethoxy]-furo[3,2-c]pyridin-3-yl}benzoic Acid] were 500 to 5000 nM and 500 to 5000 nM.
Consider `C[C@@H]1CN(C(=O)N2CC=C(c3coc4c(O[C@H](C)c5c(Cl)ccc(F)c5Cl)c(N)ncc34)CC2)C[C@H](C)O1` [Example 30, (4-{6-Amino-7-[(R)-1-(2,6-dichloro-3-fluorophenyl)-ethoxy]-furo[3,2-c]pyridin-3-yl}-3,6-dihydro-2H-pyridin-1-yl)-((2R,6S)-2,6-dimethylmorpholin-4-yl)-methanone], for which the concentration for half-maximal inhibition (IC50) at RON (human) and on MET (human) was 500 to 5000 nM in each case.
As to `CC(Oc1c(N)ncc2c(-c3cnn(C4CCNCC4)c3)coc12)c1ncc(C(F)(F)F)cc1Cl` (stereo not shown) [Example 413, 7-[1-(3-Chloro-5-trifluoromethylpyridin-2-yl)ethoxy]-3-(1-piperidin-4-yl-1H-pyrazol-4-yl)furo[3,2-c]pyridin-6-ylamine], the IC50 at RON (human) and on MET (human) was 500 to 5000 nM throughout.
For the compound `CNc1ncc2c(C3=CCN(C)CC3)coc2c1O[C@H](C)c1c(Cl)ccc(F)c1Cl` [Example 36, [7-[(R)-1-(2,6-Dichloro-3-fluorophenyl)-ethoxy]-3-(1-methyl-1,2,3,6-tetrahydropyridin-4-yl)-furo[3,2-c]pyridin-6-yl]-methylamine], the IC50 on RON (human) and on MET (human) was < 500 nM each time.
With `CNC(=O)c1cccc(-c2coc3c(O[C@H](C)c4c(Cl)ccc(F)c4Cl)c(N)ncc23)c1` [Example 68, 3-{6-Amino-7-[(R)-1-(2,6-dichloro-3-fluorophenyl)ethoxy]-furo[3,2-c]pyridin-3-yl}-N-methylbenzamide], the IC50 on RON (human) and on MET (human) was 500 to 5000 nM in each case.
Consider `C[C@@H](Oc1c(N)ncc2c(-c3ccc(C(=O)Nc4nccs4)cc3)coc12)c1c(Cl)ccc(F)c1Cl` [Example 109, 4-{6-Amino-7-[(R)-1-(2,6-dichloro-3-fluorophenyl)ethoxy]-furo[3,2-c]pyridin-3-yl}-N-thiazol-2-yl-benzamide], for which the 50% inhibitory concentration (IC50) at RON (human) and on MET (human) was 500 to 5000 nM in each case.
